# Laboratory results as given in article PMC3095640, “Potent Host-Directed Small-Molecule Inhibitors of Myxovirus RNA-Dependent RNA-Polymerases” (PLoS ONE, 2011).
# Where two headings read alike, the source gives them in different places.
# What was measured:
# MeV-Alaska [1] = assay: In vitro virus adaptation (resistance induction); format: cell-based, measles virus; details: after 90 days of continued viral incubation
# Procedure: Adaptations were carried out essentially as we have previously described. Briefly, Vero-SLAM cells were infected with MeV-Alaska at an MOI of […] and incubated in the presence of gradually increasing JMN3-003 concentrations starting at 0.5 µM. Equally infected cells treated with the virus polymerase targeted RdRp inhibitor AS-136A were examined in parallel. When cultures became over confluent, cells were reseeded for continued incubation in the presence of the same compound concentration as before. At detection of extensive cell-to-cell fusion, cell-associated viral particles were harvested, diluted 10-fold and used for parallel infections of fresh cell monolayers in the presence of compound at unchanged and doubled concentrations. Cultures treated with the highest compound concentrations in which virus-induced cytopathicity became detectable were used for further adaptation. The approach was terminated after 90 days of continued incubation or when virus-induced cytopathicity was readily detectable in the presence of 30 µM compound in accordance with previous results.
# [2] = Cytotoxicity (metabolic activity), MEL B16; format: cell-based, Rodent-mouse; details: mouse, MEL B16 cells, highest concentration assessed 75 µM
# Procedure: (§1) A non-radioactive cytotoxicity assay (CytoTox 96 Non-Radioactive Cytotoxicity Assay, Promega) was employed to determine the metabolic activity of cell after exposure to the compound. In a 96-well plate format, 10,000 cells per well were incubated at 37°C for 24 hours in four replicates per concentration tested in the presence of compound in two-fold dilutions starting at 75 µM. Substrate was then added and color development measured at 490 nm using a BioRad plate reader. Values were calculated according to the formula [% toxicity = 100−((experimental-background)/(maximum(vehicle treated)-background)*100)]. Values were plotted in dose-response curves and, if applicable, CC50 concentrations calculated.
# [3] = Cytotoxicity (metabolic activity), CHO; format: cell-based, Rodent-Chinese hamster; details: Chinese hamster, CHO cells, highest concentration assessed 75 µM
# Procedure: as §1
# [4] = Cytotoxicity (metabolic activity), Vero-Slam cells; format: cell-based; details: African green monkey, highest concentration assessed 75 µM, read-out: CC50, Toxicity, Metabolic activity
# Procedure: as §1
# Influenza A/WSN = assay: Virus yield reduction assay, influenza A/WSN; format: cell-based, influenza A strain WSN (H1N1)
# [5] = Cytotoxicity (metabolic activity), MDCK; format: cell-based, Canine-dog; details: dog, MDCK cells, highest concentration assessed 75 µM
# Procedure: as §1
# PBMCs = assay: Metabolic activity of primary human PBMCs; format: cell-based; details: 24 hours exposure
# Procedure: as §1
# MeV-Alaska [6] = assay: Post-infection time-of-addition assay; format: cell-based, measles virus; details: 1.0 µM added at times post-infection
# Influenza A/PR/8/34 = assay: Virus yield reduction assay, influenza A/PR/8/34; format: cell-based, influenza A strain PR8/34 (H1N1); details: genome copy numbers of released progeny particles by TaqMan RT-PCR
# [7] = tested on: different established cell lines (HeLa, A549, HepG2, Vero-Slam, MDCK); assay: Metabolic activity of different established cell lines; format: cell-based, human, primate, canine; details: at 75 µM, 24 hours
# Procedure: as §1
# [8] = Cytotoxicity (metabolic activity), BHK-21; format: cell-based, Rodent-Syrian hamster; details: Syrian hamster, BHK-21 cells, highest concentration assessed 75 µM
# Procedure: as §1
# HPIV3 = assay: microbe, parasite or virus in culture; format: cell-based, human parainfluenzavirus type 3; details: Human respirovirus 3; titered through plaque assaying
# in vitro = format: cell-based, Avian-chicken; details: chicken; DF-1; highest concentration assessed 75 µM; read-out: CC50, Metabolic Activity
# Procedure: as §1
# [9] = tested on: bronchial epithelial cells; assay: Metabolic activity of primary human bronchial epithelial cells; format: cell-based; details: 24 hours exposure
# Procedure: as §1
# cdc2-cyclin B kinase = assay: Immunoblot of cdc2-cyclin B kinase phosphorylation status; format: cell-based; details: phospho-cdc2 (Tyr15)
# smooth muscle cells = assay: Metabolic activity of primary human smooth muscle cells; format: cell-based; details: 24 hours exposure
# Procedure: as §1
# MeV-Alaska [10] = format: cell-based, measles virus; details: 100 nM, 40 hours
# [11] = Metabolic stability in human liver S9 fractions; format: in vitro ADME
# Procedure: JMN3-003 was mixed with liver S9 fractions (protein concentration 2.5 mg/ml) from pooled mixed gender humans (XenoTech) at a final concentration of 1 µM and reactions initiated by the addition of cofactors (1.14 mM NADPH, 1.43 mM glucose-6-phosphate, 1.43 mM uridine 5′-diphosphoglucuronic acid, 9.42 mM potassium chloride, 2.28 mM magnesium chloride) in 100 mM potassium phosphate buffer, pH 7.4. Samples were incubated at 37°C with mixing, aliquots removed after 0, 15, 30 and 60 minutes and subjected to reversed-phase LC-MS/MS (Applied Biosystems API 4000 QTRAP with heated nebulizer; Turbo IonSpray for JMN5-166) analysis. Peak areas were measured to calculate half life and percent of input compound remaining according to the formulas t1/2 = (−0.693/slope of linear regression analysis of log transformed peak area versus) and % input remaining = (peak area of test compound at tx/peak area of test compound at t0)*100. Positive controls to assess the metabolic competency of the liver S9 fractions were 7-Ethoxycoumarin, Propranolol, and Verapamil (Sigma), which were analyzed in parallel to the article. […] Aliquots were removed at distinct time points as indicated and analyzed by LC-MS/MS with detection of the compound at 254 nm. Values are expressed as percent of compound remaining at each time relative to the amount of that compound present at the starting time point.
# RSV (Long) = assay: microbe, parasite or virus in culture; format: cell-based, respiratory syncytial virus strain Long; details: human respiratory syncytial virus; titered through plaque assaying
# MeV-Alaska [12] = assay: Cell priming: pre-treatment, wash-out, then MeV-Alaska infection; format: cell-based, measles virus; details: 1.0 µM for 60 minutes
# vaccinia virus = format: cell-based; details: compared with activity against myxoviruses
compound,measurement,setting,value
COc1ccc(-n2c(SC(C)C(=O)Nc3ccc(C)cc3Cl)nc3ccccc32)cc1 (stereo not drawn) [JMN3-003],change of the tolerated dose,MeV-Alaska [1],only marginal increases in the tolerated dose
same,CC50 at 24 h,[2],> 75 µM
same,CC50 at 24 h,[3],> 75 µM
same,CC50 at 24 h,[4],> 75 µM
same,EC50,"Influenza A/WSN; Influenza A virus, WSN, HT-1080, host cell HT1080 (Human), read-out: EC50, Inhibition of Influenza A/WSN",60 ± 2 nM
same,EC50,"Influenza A/WSN; Influenza A virus, WSN, MDCK, read-out: EC50, Inhibition of Influenza A/WSN",10 nM
same,EC50,"Influenza A/WSN; Influenza A virus, WSN, NIH3T3, host cell NIH-3T3 (Rodent-mouse), read-out: EC50, Inhibition of Influenza A/WSN",> 10000 nM
same,EC50,"Influenza A/WSN; Influenza A virus, WSN, genome copy numbers of released progeny particles by TaqMan RT-PCR, read-out: EC50, Influenza A/WSN",10 ± 8 nM
same,EC50,"Influenza A/WSN; Influenza A virus, WSN, host cell BHK-21 (Rodent-Syrian hamster), read-out: EC50, Inhibition of Influenza A/WSN",80 ± 10 nM
same,EC50,"Influenza A/WSN; Influenza A virus, WSN, host cell CHO (Rodent-Chinese hamster), read-out: EC50, Inhibition of Influenza A/WSN",70 ± 10 nM
same,EC50,"Influenza A/WSN; Influenza A virus, WSN, host cell DF-1 (Avian-chicken), read-out: EC50, Inhibition of Influenza A/WSN",> 10000 nM
same,EC50,"Influenza A/WSN; Influenza A virus, WSN, host cell HeLa (Human), read-out: EC50, Inhibition of Influenza A/WSN",20 ± 10 nM
same,EC50,"Influenza A/WSN; host cell MEL B16 (Rodent-mouse), read-out: EC50, Inhibition of Influenza A/WSN",> 10000 nM
same,CC50 at 24 h,[5],> 75 µM
same,metabolic activity of primary human PBMCs,PBMCs,unaffected
same,inhibition profile in time-of-addition experiment,MeV-Alaska [6],very closely resembled the profile of the AS-136A RdRp blocker class
same,EC50,Influenza A/PR/8/34,10 ± 1 nM
same,metabolic activity of different established cell lines,[7],unchanged
same,CC50 at 24 h,[8],> 75 µM
same,EC50,HPIV3,80 ± 10 nM
same,CC50 at 24 h,in vitro,> 75 µM
same,metabolic activity of primary human bronchial epithelial cells,[9],only slightly affected
same,phosphorylation status of cdc2-cyclin B kinase,cdc2-cyclin B kinase,increased steady state levels of phosphorylated cdc2-cyclin B kinase
same,metabolic activity of primary human smooth muscle cells,smooth muscle cells,unaffected
same,reduction of viral mRNA and antigenome copy numbers relative to vehicle,MeV-Alaska [10],> 100 fold
same,half-life at 1 µM,"[11]; both sexes, human, liver S9 fractions, pH 7.4, human liver S9 fractions, up to 60 minutes, LC-MS/MS, calculated/extrapolated, read-out: half-life (t1/2)",~200 min
same,input material remaining intact,"[11]; human S-9 fractions, 60-minute exposure, 1 µM",approximately 80%
same,EC50,RSV (Long),70 ± 10 nM
same,inhibitory effect after cell pre-treatment and wash-out,MeV-Alaska [12],could not detect any substantial inhibitory effect
same,activity against vaccinia virus,vaccinia virus,to a lesser degree
